The results in this text go back to patent US12480848B2, “Crack sensor, preparation method therefor, and application thereof in micro-force measurement” (QILU UNIVERSITY OF TECHNOLOGY (SHANDONG ACADEMY OF SCIENCES), priority 2022, dated 2025).

As a reminder, the pEC50 is the negative decadic logarithm of the EC50, by convention in mol/L.

pEC50: −log10 of the molar value. Like-named read-outs stand apart in the source and are kept apart here.

The subject of this assay is cardiomyocytes (CM). Nature of the assay: Drug evaluation: CM contractility (contractile force, beating rate) measured with the Ag/CNT-PDMS crack sensor. Particulars: for pEC50: Cardiomyocyte.

Regarding `CC(C)NCC(O)c1ccc(O)c(O)c1` (stereo not shown) [isoproterenol], the pEC50 reads like this: (read-out: apparent EC50 of CM beating rate (dose-response curve)) 7.15; (read-out: apparent EC50 of CM contractile force (dose-response curve)) 7.03. In addition, for the setting “concentration increased from 0.1 nM to 1 μM”, the “contractile force and beating rate” value is “gradually increased”. Besides, under “when the concentration reached 100 nM”, the CM contractility entry is on record as “became saturated”.
